For one test, the target named is T1, PDE4B1 (Homo sapiens, UniProt Q07343).
T1 construct: made in house; host or cells: SF21 insect cells (baculovirus; virus prepared in SF9 cells)
In words: Inhibition of PDE4B1 activity (SPA, [3H]cAMP). The test is classed as biochemical. To be noted: recombinant PDE4B1, 0.5 μM cAMP; binned: below 8 / between 8 and 9; read-out: PDE4B1 inhibitory values measured as −logIC50 (converted). The protocol: The PDE4B1 (GB no. L20966) was a gift of Prof. M. Conti (Stanford University, USA). It was amplified from the original plasmid (pCMV5) via PCR with primers Rb18 (5′-[…]-3′) and Rb10 (5′-[…]-3′) and cloned into the pCR-Bac vector (Invitrogen, Groningen, NL).
The recombinant baculovirus was prepared by means of homologous recombination in SF9 insect cells. The expression plasmids were cotransfected with Baculo-Gold DNA (Pharmingen, Hamburg) using a standard protocol (Pharmingen, Hamburg). Wt virus-free recombinant virus supernatants were selected using plaque assay methods. After that, high-titre virus supernatants were prepared by amplifying 3 times. PDE4B1 was expressed in SF21 cells by infecting 2×10^6 cells/ml with an MOI (multiplicity of infection) between 1 and 10 in the serum-free SF900 medium (GIBCO Life Technologies, Karlsruhe, Germany). The cells were cultured at 28° C. for 48-72 hours, after which they were pelleted for 5-10 min at 1000×g and 4° C.
The SF21 insect cells were resuspended, at a concentration of approx. 10^7 cells/ml, in ice-cold (4° C.) homogenization buffer (20 mM Tris, pH 8.2, containing the following additions: 140 mM NaCl, 3.8 mM KCl, 1 mM EGTA, 1 mM MgCl2, 10 mM β-mercaptoethanol, 2 mM benzamidine, 0.4 mM Pefablock, 10 μM leupeptin, 10 μM pepstatin A, 5 μM trypsin inhibitor) and disrupted by ultrasonication. The homogenate was then centrifuged for 10 min at 1000×g and the supernatant was stored at −80° C. until subsequent use (see below). The protein content was determined by the Bradford method (BioRad, Munich) using BSA (Bovine serum albumin) as the standard.
PDE4B1 activities were measured in a 96-well platform using SPA (scintillation proximity assay) yttrium silicate beads (RPNQ1050 from GE Healthcare). In a first step the PDE activity operated hydrolysis of either [^3H] cAMP (substrate) into [^3H] 5′AMP. In a second step substrate and product were distinguished following addition of SPA yttrium silicate beads. Indeed, in the presence of zinc sulphate the linear [^3H] […] Close proximity of bound [^3H] […] The test volume was 100 μl and finally contained 20 mM Tris buffer (pH 7.4), 0.1 mg/ml of BSA, 5 mM Mg^2+, 0.5 μM cAMP (including about 50,000 cpm of [3H]cAMP) as substrate, 1 μl of the respective substance dilution in DMSO and sufficient recombinant PDE (1000×g supernatant, see above) to ensure that 10-20% of the cAMP was converted under the said experimental conditions. […] After a preincubation of 5 min at 37° C., the reaction was commenced by adding the substrate (cAMP) and the assays were incubated for a further 15 min. Reactions were terminated by adding SPA beads (50 μl). In agreement with the manufacturer's instructions, the SPA beads had previously been resuspended in water, but were then diluted 1:3 (v/v) in water. This diluted solution further contained 3 mM IBMX (isobutylmethylxanthine) to ensure a complete block of PDE activity. Once the beads were sedimented (>30 min), the MTP's (microtiter plate) were analyzed in commercially available luminescence detection devices. The corresponding IC50 values of the compounds for inhibition of PDE4B1 activity were determined from the concentration-effect curves by means of non-linear regression.
For the following compounds PDE4B1 inhibitory values [measured as −logIC50 (mol/l)] below 8 and between 8 and 9 have been determined. The numbers of the compounds correspond to the numbers of the examples.

In another test the target is T2, human PDE5 (Homo sapiens, UniProt O76074).
T2 construct: from tissue; host or cells: human platelets from fresh donor blood (platelet lysate)
In words: Inhibition of PDE5 activity (SPA, [3H]cGMP, platelet lysate). The test is classed as biochemical. To be noted: 0.5 μM cGMP, binned: below 8 / between 8 and 9, read-out: PDE5 inhibitory values measured as −logIC50 (converted). The protocol: As a source for human PDE5, platelets were used. For that purpose, 150 ml fresh blood from human donors anticoagulated with citrate [final concentration 0.3% (w/v)] was centrifuged at 200 g for 10 min to obtain the so-called platelet-rich-plasma (PRP) as a supernatant. 1/10 volume of ACD solution (85 mM Na3-citrate, 111 mM D-glucose, 71 mM citric acid, pH 4.4) was added to 9/10 volume of PRP. After centrifugation (1,400 g, 10 min) the cell pellet was resuspended in 3 ml homogenization buffer (NaCl 140 mM, KCl 3.8 mM, EGTA (ethylene glycol tetraacetic acid) 1 mM, MgCl2 1 mM, Tris-HCl 20 mM, beta-mercaptoethanol 1 mM, pH 8.2) plus protease-inhibitor mix resulting in final concentrations of 0.5 mM Pefablock (Roche), 10 μM Leupeptin, 5 μM Trypsine inhibitor, 2 mM Benzamidin and 10 μM Pepstatin A. The suspension was sonicated and thereafter centrifuged for 15 min at 10,000 g. The resulting supernatant (platelet lysate) was used for enzymatic assays.
PDE5 activities were measured in a 96-well platform using SPA (scintillation proximity assay) yttrium silicate beads (RPNQ1050 from GE Healthcare). In a first step the PDE activity operated hydrolysis of either [^3H] cGMP (substrate) into [^3H] 5′GMP. In a second step substrate and product were distinguished following addition of SPA yttrium silicate beads. Indeed, in the presence of zinc sulphate the linear [^3H] […] Close proximity of bound [^3H] […] The test volume was 100 μl and contained 20 mM Tris buffer (pH 7.4), 0.1 mg of BSA (bovine serum albumin)/ml, 5 mM Mg^2+, 1 μM motapizone (PDE3 Inhibitor), 10 nM PDE2 inhibitor 2-(3,4-dimethoxybenzyl)-7-[(1R,2R)-2-hydroxy-1-(2-phenylethyl)propyl]-5-methylimidazo[5,1-f][1,2,4]triazin-4(3H)-one, 0.5 μM cGMP (cyclic guanosine monophosphate) (including about 50,000 cpm of [3H]cGMP as a tracer) (substrate), 1 μl of the respective compound dilution in dimethylsulfoxide (DMSO) and sufficient PDE5-containing platelet lysat (10,000×g supernatant, see above) to ensure that 10-20% of the cGMP was converted under the said experimental conditions. […] After a preincubation of 5 min at 37° C., the reaction was commenced by adding the substrate (cGMP) and the assay was incubated for a further 15 min. The reaction was terminated by adding SPA beads (50 μl). In agreement with the manufacturer's instructions, the SPA beads had previously been resuspended in water, but were then diluted 1:3 (v/v) in water. This diluted solution also contained 3 mM 8-methoxymethyl-3-isobutyl-1-methylxanthine (IBMX) to ensure a complete block of PDE activity. Once the beads were sedimented (>30 min), the MTP's were analyzed in commercially available luminescence detection devices. The corresponding IC50 values of the compounds for inhibition of PDE activity were determined from the concentration-effect curves by means of non-linear regression.
For the following compounds PDE5 inhibitory values [measured as −logIC50 (mol/l)] below 8 and between 8 and 9 have been determined. The numbers of the compounds correspond to the numbers of the examples.

T1 sequence (Q07343 whole entry): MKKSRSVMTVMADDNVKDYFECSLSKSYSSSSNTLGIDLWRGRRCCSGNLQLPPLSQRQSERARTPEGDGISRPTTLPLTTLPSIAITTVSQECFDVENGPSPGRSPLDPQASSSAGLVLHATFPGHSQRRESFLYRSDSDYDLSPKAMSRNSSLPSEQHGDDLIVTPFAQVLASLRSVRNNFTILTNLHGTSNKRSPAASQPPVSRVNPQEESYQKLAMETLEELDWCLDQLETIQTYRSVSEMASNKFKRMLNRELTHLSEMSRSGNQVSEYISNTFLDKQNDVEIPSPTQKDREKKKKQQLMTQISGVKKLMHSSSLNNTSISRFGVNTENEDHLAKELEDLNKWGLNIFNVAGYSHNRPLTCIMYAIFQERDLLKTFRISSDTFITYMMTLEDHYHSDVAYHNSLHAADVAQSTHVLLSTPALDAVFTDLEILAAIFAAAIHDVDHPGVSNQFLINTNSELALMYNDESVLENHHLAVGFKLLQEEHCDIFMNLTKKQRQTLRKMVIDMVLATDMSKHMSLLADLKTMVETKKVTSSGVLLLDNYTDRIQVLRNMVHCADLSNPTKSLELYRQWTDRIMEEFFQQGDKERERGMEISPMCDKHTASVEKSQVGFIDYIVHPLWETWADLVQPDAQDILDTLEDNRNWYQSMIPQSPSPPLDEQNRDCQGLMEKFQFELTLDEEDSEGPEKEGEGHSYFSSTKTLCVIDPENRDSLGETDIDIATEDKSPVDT

As for `CCOc1cc2c(cc1OC)C(c1ccc(C(=O)N3CCC(n4c(=O)c5sc(-c6ccc7c(c6)OCO7)cc5n(Cc5ccc(OC)c(F)c5)c4=O)CC3)cc1)=N[C@@H]1CCSC[C@H]21` [Example 8, 6-(1,3-benzodioxol-5-yl)-3-[1-({4-[(4aR,10bR)-9-ethoxy-8-methoxy-3,4,4a,10b-tetrahydro-1H-thiopyrano[4,3-c]isoquinolin-6-yl]phenyl}carbonyl)piperidin-4-yl]-1-(3-fluoro-4-methoxybenzyl)thieno[3,2-d]pyrimidine-2,4(1H,3H)-dione], the IC50 at PDE4B1 and at human PDE5 was 1 to 10 nM in each case.
For `CCOc1cc2c(cc1OC)C(c1ccc(C(=O)N3CCC(n4c(=O)c5sc(-c6ccc(F)cc6OC)cc5n(Cc5ccc(OC)c(F)c5)c4=O)CC3)cc1)=N[C@@H]1CCSC[C@H]21` [Example 9, 3-[1-({4-[(4aR,10bR)-9-ethoxy-8-methoxy-3,4,4a,10b-tetrahydro-1H-thiopyrano[4,3-c]isoquinolin-6-yl]phenyl}carbonyl)piperidin-4-yl]-1-(3-fluoro-4-methoxybenzyl)-6-(4-fluoro-2-methoxyphenyl)thieno[3,2-d]pyrimidine-2,4(1H,3H)-dione], the IC50 on PDE4B1 and at human PDE5 was 1 to 10 nM in each case.
Take `CCOc1cc2c(cc1OC)C(c1ccc(C(=O)N3CCC(n4c(=O)c5sc(-c6cc(F)ccc6OC)cc5n(Cc5ccc(OC)c(F)c5)c4=O)CC3)cc1)=N[C@@H]1CCSC[C@H]21` [Example 10, 3-[1-({4-[(4aR,10bR)-9-ethoxy-8-methoxy-3,4,4a,10b-tetrahydro-1H-thiopyrano[4,3-c]isoquinolin-6-yl]phenyl}carbonyl)piperidin-4-yl]-1-(3-fluoro-4-methoxybenzyl)-6-(5-fluoro-2-methoxyphenyl)thieno[3,2-d]pyrimidine-2,4(1H,3H)-dione]: the IC50 at PDE4B1 and at human PDE5 was 1 to 10 nM throughout.
Turning to `CCOc1cc2c(cc1OC)C(c1ccc(C(=O)N3CCC(n4c(=O)c5sc(-c6cc(OC)ccc6OC)cc5n(Cc5ccc(OC)c(F)c5)c4=O)CC3)cc1)=N[C@@H]1CCSC[C@H]21` [Example 11, 6-(2,5-dimethoxyphenyl)-3-[1-({4-[(4aR,10bR)-9-ethoxy-8-methoxy-3,4,4a,10b-tetrahydro-1H-thiopyrano[4,3-c]isoquinolin-6-yl]phenyl}carbonyl)piperidin-4-yl]-1-(3-fluoro-4-methoxybenzyl)thieno[3,2-d]pyrimidine-2,4(1H,3H)-dione], the IC50 on PDE4B1 and on human PDE5 was 1 to 10 nM each time.
For the molecule `CCOc1cc2c(cc1OC)C(c1ccc(C(=O)N3CCC(n4c(=O)c5sc(-c6ccccc6F)cc5n(Cc5ccc(OC)c(F)c5)c4=O)CC3)cc1)=N[C@@H]1CCSC[C@H]21` [Example 12, 3-[1-({4-[(4aR,10bR)-9-ethoxy-8-methoxy-3,4,4a,10b-tetrahydro-1H-thiopyrano[4,3-c]isoquinolin-6-yl]phenyl}carbonyl)piperidin-4-yl]-1-(3-fluoro-4-methoxybenzyl)-6-(2-fluorophenyl)thieno[3,2-d]pyrimidine-2,4(1H,3H)-dione], the IC50 at PDE4B1 and on human PDE5 was 1 to 10 nM throughout.
With `CCOc1cc2c(cc1OC)C(c1ccc(C(=O)N3CCC(n4c(=O)c5sc(-c6ccc(F)cc6)cc5n(Cc5ccc(OC)c(F)c5)c4=O)CC3)cc1)=N[C@@H]1CCSC[C@H]21` [Example 13, 3-[1-({4-[(4aR,10bR)-9-ethoxy-8-methoxy-3,4,4a,10b-tetrahydro-1H-thiopyrano[4,3-c]isoquinolin-6-yl]phenyl}carbonyl)piperidin-4-yl]-1-(3-fluoro-4-methoxybenzyl)-6-(4-fluorophenyl)thieno[3,2-d]pyrimidine-2,4(1H,3H)-dione], the IC50 on PDE4B1 and on human PDE5 was 1 to 10 nM each time.
With `CCOc1cc2c(cc1OC)C(c1ccc(C(=O)N3CCC(n4c(=O)c5sc(-c6ccc(F)cc6OC)cc5n(Cc5cc(F)c(OC)c(F)c5)c4=O)CC3)cc1)=N[C@@H]1CCSC[C@H]21` [Example 14, 1-(3,5-difluoro-4-methoxybenzyl)-3-[1-({4-[(4aR,10bR)-9-ethoxy-8-methoxy-3,4,4a,10b-tetrahydro-1H-thiopyrano[4,3-c]isoquinolin-6-yl]phenyl}carbonyl)piperidin-4-yl]-6-(4-fluoro-2-methoxyphenyl)thieno[3,2-d]pyrimidine-2,4(1H,3H)-dione], the IC50 on PDE4B1 is over 10 nM; at human PDE5 it was 1 to 10 nM.
Turning to `CCOc1cc2c(cc1OC)C(c1ccc(C(=O)N3CCC(n4c(=O)c5sc(-c6ccc(F)cc6OC)cc5n(Cc5ccc(OC)c(F)c5F)c4=O)CC3)cc1)=N[C@@H]1CCSC[C@H]21` [Example 15, 1-(2,3-difluoro-4-methoxybenzyl)-3-[1-({4-[(4aR,10bR)-9-ethoxy-8-methoxy-3,4,4a,10b-tetrahydro-1H-thiopyrano[4,3-c]isoquinolin-6-yl]phenyl}carbonyl)piperidin-4-yl]-6-(4-fluoro-2-methoxyphenyl)thieno[3,2-d]pyrimidine-2,4(1H,3H)-dione], the IC50 on PDE4B1 is 1 to 10 nM; at human PDE5 it was over 10 nM.

The values are drawn from patent publication US20140113877A1, “NOVEL 3,4,4A,10B-TETRAHYDRO-1H-THIOPYRANO[4,3-C] ISOQUINOLINE COMPOUNDS” (Takeda GmbH, priority 2011, published 2014).
